Test results reported in PubChem BioAssay AID463204 (Broad Institute, 2010).
Active and inactive are the calls of the source.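 How the source made its calls: active means AC50 no more than ten times the top concentration tested, that is within one log above it; inconclusive means flat curve fit with activity between 30% and 70%, or invalid poor fit; inactive means AC50 beyond ten times the top tested dose.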

Tested on: S. cerevisiae Mot1-301 ts growth rescue, BacTiter-Glo ATP luminescence
Test: growth rescue of Mot1-301 ts yeast, confirmation, SUMOylation pathway inhibitor project, whole organism, S. cerevisiae, Mot1-301 ts mutant, luminescence, dose retest (AID 463204);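 further: growth at restrictive 38.5 degrees C of Mot1-301 OY566 strain; actives raise luminescence by restoring growth of the ts mutant at high temperature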

| Compound | AC50 |
| --- | --- |
| Cc1ccc(-n2nc3c(=O)n(CCCC(=O)NCc4cccc(F)c4)nc(C)c3c2C)cc1 | > 42 µM (inactive) |
| C(=N\Nc1ccc2nncn2n1)/c1ccccn1 | > 42 µM (inactive) |
| COc1ccc(C2=NOC(Cn3nc(C(=O)NCc4cccs4)cc3-c3ccccc3)C2)cc1 (centres undefined) | > 42 µM (inactive) |
| Cc1cc(=O)n2[nH]c(-c3ccc(F)cc3)nc2n1 | > 42 µM (inactive) |
| CC(Cc1ccc(O)c(O)c1)C(C)Cc1ccc(O)c(O)c1 (centres undefined) | > 42 µM (inactive) |
| O=C(Cc1cccs1)N1CCCC(c2nc3c(nnn3Cc3ccc(F)cc3)c(=O)[nH]2)C1 (centres undefined) | > 42 µM (inactive) |
| c1ccc2cc(Cn3ccnc3)ccc2c1 | > 42 µM (inactive) |
| Cc1ccc(C)c(NC(=O)COC(=O)c2ccc3c(c2)OCO3)c1 | > 42 µM (inactive) |
| CC1(C)CC(=O)C(C=Nc2ccc(O)c(N=CC3=C(O)CC(C)(C)CC3=O)c2)=C(O)C1 | > 42 µM (inactive) |
| O=C(CSc1ccc(Br)cc1)Nc1ccccc1N1CCOCC1 | > 42 µM (inactive) |
| COc1ccc(CCNC(=O)Cn2nnc(-c3ccc(N4CCOCC4)cc3)n2)cc1OC | > 42 µM (inactive) |
| O=C(CCCCCn1c(=O)[nH]c2ccsc2c1=O)NCc1ccc(F)cc1 | > 42 µM (inactive) |
| CCOc1ccccc1N(C(=O)c1snc(C(N)=O)c1N)C(CC)C(=O)NC1CCCC1 (centres undefined) | 41.7 µM |
| CC1=C(C(=O)N2CCOCC2)C(c2ccc(O)cc2)NC(=S)N1 (centres undefined) | > 42 µM (inactive) |
| Cc1cnc(C(=O)OCC(=O)Nc2ccc(C)c(S(=O)(=O)N(C)C)c2)cn1 | > 42 µM (inactive) |
| O=C(CCc1ccccc1)NNC(=O)c1ccc(Br)cc1 | > 42 µM (inactive) |
| CN(CC(=O)NCc1cccs1)S(=O)(=O)c1cccc2nsnc12 | > 42 µM (inactive) |
| COCc1[nH][nH]c(=O)c1C=Nc1ccc(OC(F)(F)F)cc1 | > 42 µM (inactive) |
| Cn1c(=O)c2c(nc(N/N=C/c3ccc(OC(=O)c4ccco4)cc3)n2Cc2ccccc2Cl)n(C)c1=O | > 42 µM (inactive) |
| CCOC(=O)c1oc2ccccc2c1COC(=O)CNC(=O)c1cccc(C)c1 | > 42 µM (inactive) |
| CSc1ncc2ncn(C3OC(CO)C(O)C3O)c2n1 (centres undefined) | > 42 µM (inactive) |
| O=C(CSc1nc2ncccc2[nH]1)NC1CCCCC1 | > 42 µM (inactive) |
| CCN1C(=O)c2cccc3c(S(=O)(=O)Nc4ccc(OC)cc4OC)ccc1c23 | > 42 µM (inactive) |
| O=C(CSc1ncn[nH]1)Nc1cccc(S(=O)(=O)N2CCCCCC2)c1 | > 42 µM (inactive) |
| Cc1sc(NC(=O)c2ccc(F)cc2)c(CN2CCCCCC2)c1C | > 42 µM (inactive) |

| Compound | AC50 |
| --- | --- |
| COc1cccc(C2C(C(C)=O)=C(O)C(=O)N2CCc2c[nH]c3ccccc23)c1 (centres undefined) | > 42 µM (inactive) |
| CC(=O)c1c(Nc2cccc(F)c2)oc(C)cc1=O | > 42 µM (inactive) |
| COc1ccc(C(=O)Nn2c(SCC(=O)NCc3ccccc3)nc3ccccc3c2=O)cc1 | > 42 µM (inactive) |
| COc1ccc(C(=O)CC(=O)C(=O)Nc2ccc(C)c(C)c2)cc1 | > 42 µM (inactive) |
| CC(=O)c1ccc(C(=O)N2CCCC(N3CCN(c4ccc(F)cc4)CC3)C2)s1 (centres undefined) | > 42 µM (inactive) |
| COc1ccc(C(=O)NC(=S)Nc2ccc(CN3CCCCC3)cc2)cc1Cl | > 42 µM (inactive) |
| COc1ccccc1CNC(=O)C1CCC(=O)N1C(C)C (centres undefined) | > 42 µM (inactive) |
| O=S(=O)(c1ccccc1)N1CCN(c2nc3ccccc3s2)CC1 | > 42 µM (inactive) |
| Cc1ccc(-c2nc(CS(=O)(=O)CC(=O)NC3CCCCC3C)c(C)o2)cc1 (centres undefined) | > 42 µM (inactive) |
| COc1ccc(C2C(C(=O)Nc3cc(OC)c(OC)c(OC)c3)c3ccccc3C(=O)N2C)cc1 (centres undefined) | > 42 µM (inactive) |
| CN(C)c1ccnc2sc3c(NCC(O)CO)ncnc3c12 (centres undefined) | > 42 µM (inactive) |
| CSc1ccccc1-n1nnnc1SCC(=O)Nc1ccccc1C | > 42 µM (inactive) |
| CCCOC(=O)c1c(NC(=O)/C=C/c2cnn(C)c2C)sc(C(=O)OC)c1C | > 42 µM (inactive) |
| COc1ccccc1NC(=S)N(Cc1ccccc1)Cc1cccs1 | > 42 µM (inactive) |
| CC(C)n1c(O)c(N=Nc2ccccn2)c2ccccc21 | > 42 µM (inactive) |
| Cc1ccc(/C=C/C(=O)O)cc1S(=O)(=O)N(CCO)CCO | > 42 µM (inactive) |
| COc1ccc(-c2nnc(-c3cc4c(ccc5ccccc54)oc3=O)o2)cc1 | > 42 µM (inactive) |
| C/C=C\C=C/C(=O)Nc1cccc(C2=NOC3(C2)C[C@@H](C(N)=O)N(C(=O)c2ccccc2)C3)c1 (some centres undefined) | > 42 µM (inactive) |
| O=C(Nc1ccc2[nH]c(=O)[nH]c2c1)c1c(F)c(F)c(F)c(F)c1F | > 42 µM (inactive) |
| COCCNC(=O)NC(=O)CSc1nc(C)c(C)c(C)n1 | > 42 µM (inactive) |
| COc1ccc(C(=O)Nc2ccccc2C(=O)NCCN2CCOCC2)cc1OC | > 42 µM (inactive) |
| CCc1nnc(NC(=O)CSc2ccc(-c3ccc(-n4cccn4)cc3)nn2)s1 | > 42 µM (inactive) |
| Cc1cc(/C=C2\C(=O)NC(=O)N(c3ccccc3F)C2=O)c(C)n1-c1cc(C(=O)O)cc(C(=O)O)c1 | > 42 µM (inactive) |
| CC1CC(C)(C)NC(=S)N1CC(=O)NCc1ccc(F)cc1 (centres undefined) | > 42 µM (inactive) |
| Cc1cnc(NC(=O)CN2CCN(c3ccccc3F)CC2)s1 | > 42 µM (inactive) |

| Compound | AC50 |
| --- | --- |
| Cc1c(C(=O)NC(C)c2ccc(-n3ccnc3)cc2)cccc1[N+](=O)[O-] (centres undefined) | > 42 µM (inactive) |
| NC1=NC(=Nc2ccc(S(N)(=O)=O)cc2)c2ccccc21 | > 21 µM (inactive) |
| CN1C(=O)C(O)(CC(=O)c2ccccc2O)c2cc(Br)ccc21 (centres undefined) | > 42 µM (inactive) |
| O=C(CC1(CC2=NS(=O)(=O)c3ccccc3N2)CCCC1)NCCc1ccccc1 | > 42 µM (inactive) |
| O=C(CNC(=O)c1ccco1)OCC(=O)c1cccc2ccccc12 | > 42 µM (inactive) |
| N/C(=N\OC(=O)CCC1CCCC1)c1ccc([N+](=O)[O-])cc1 | > 42 µM (inactive) |
| NS(=O)(=O)c1ccc(CCNC(=O)CN2CCN(c3ccc(F)cc3)CC2)cc1 | > 42 µM (inactive) |
| CCN(CC)S(=O)(=O)c1ccc(NC(=O)C(C)N(c2ccccc2)S(C)(=O)=O)cc1 (centres undefined) | > 42 µM (inactive) |
| CC(OC(=O)c1cnccn1)C(=O)c1ccccc1 (centres undefined) | > 42 µM (inactive) |
| CCOC(=O)C1CCCN(C(=O)c2cc(-c3ccc(F)cc3)nc3ccccc23)C1 (centres undefined) | > 42 µM (inactive) |
| CC(C)C(O)(C(=O)NNc1ccccc1)C(C)C | > 42 µM (inactive) |
| Cc1cc(NC(=O)/C=C/c2ccco2)ccc1NC(=O)c1ccccc1 | > 42 µM (inactive) |
| Cc1cccc2nc3ccccc3cc12 | > 42 µM (inactive) |
| CCN(CC)/C(=N\S(=O)(=O)c1ccc(F)cc1)c1ccccc1 | > 21 µM (inactive) |
| CC(c1ccccn1)N(CCN(C)C)C(=S)Nc1cccc(F)c1 (centres undefined) | > 42 µM (inactive) |
| N#CC(CC(=O)c1ccc(F)cc1)c1ccc2c(c1)OCO2 (centres undefined) | 40.2 µM |
| CCOc1ccc(C(=O)Nc2ccc(C(F)(F)F)n(C)c2=O)cc1 | > 42 µM (inactive) |
| Cc1onc(-c2ccccc2Cl)c1C(=O)N1CCc2ccccc2C1 | 34 µM |
| Cc1c(C)c2c(c(C)c1O)CCC(C)(C(=O)O)O2 (centres undefined) | > 42 µM (inactive) |
| O=C1CCC(=O)N1CCOP1(=O)COc2ccccc2OC1 | > 42 µM (inactive) |
| CCOc1ccc(NS(=O)(=O)c2ccc(C(=O)NCc3cccnc3)cc2)cc1 | > 42 µM (inactive) |
| OC(c1ccccc1)(C1CCCCC1)C(CN1CCOCC1)c1ccccc1 (centres undefined) | 13.9 µM |
| N#C/C(=C\c1cc([N+](=O)[O-])c(N2CCOCC2)cc1N1CCOCC1)c1nc2ccccc2[nH]1 | > 42 µM (inactive) |
| Cc1ccccc1Nc1cc(=O)oc2ccccc12 | > 42 µM (inactive) |
| Cc1onc(-c2ccccc2)c1C(=O)N/N=C/C=C/c1ccccc1 | > 42 µM (inactive) |

| Compound | AC50 |
| --- | --- |
| Cc1ccccc1P(=O)(CO)c1ccccc1C | > 42 µM (inactive) |
| O=Cc1cn(Cc2ccccc2F)c2ccccc12 | > 42 µM (inactive) |
| Cc1ccc(-n2nnnc2C(Cl)(Cl)c2nnnn2-c2ccc(C)cc2)cc1 | 0.73 µM |
| CN(C)C(=O)CSc1nc2ccc(N3C(=O)c4ccccc4C3=O)cc2s1 | > 42 µM (inactive) |
| COc1cccc(/C=C2\SC(N3CCC(C)CC3)=NC2=O)c1OC | > 42 µM (inactive) |
| COc1cc2c(cc1OC)C(c1ccc(SC)cc1)CC(=O)N2 (centres undefined) | > 42 µM (inactive) |
| C(=N\N1CCN(C2c3ccccc3-c3ccccc32)CC1)/c1ccncc1 | 13.8 µM |
| CCOc1ccc(Cn2c(SCCCCC#N)nc3c2c(=O)n(C)c(=O)n3C)cc1OCC | > 42 µM (inactive) |
| NN1C(=O)NC(c2ccccc2)(c2ccccc2)C1=O | > 42 µM (inactive) |
| CC1CCN(S(=O)(=O)c2ccc(NC(=O)c3cccs3)cc2)CC1 | > 42 µM (inactive) |
| CCOC(=O)c1ccc(NC(=O)CC2Sc3ncnn3C2=O)cc1 (centres undefined) | 6.96 µM |
| O=C(c1ccc(F)cc1)C(CN1CCOCC1)c1ccccc1 (centres undefined) | 1.3 µM |
| CC(C)CNc1cc(=O)n(C)c(=O)n1C | > 42 µM (inactive) |
| CCN(C(=O)COC(=O)c1c(-c2ccccc2)noc1C)c1c(N)n(Cc2ccccc2)c(=O)[nH]c1=O | > 42 µM (inactive) |
| COCC(=O)Nc1c(C(=O)Nc2ccc3c(c2)OCO3)oc2ccccc12 | > 42 µM (inactive) |
| Cc1cccc(N(Cc2ccccc2)C(=O)CSC(C)C(=O)Nc2cc(C)on2)c1 (centres undefined) | > 42 µM (inactive) |
| CC(C)Oc1ccc(C2(C#N)CC[N+](C)(C)CC2)cc1 | > 42 µM (inactive) |
| Cc1ccccc1-c1nc(CN2CCCC(C(=O)NCc3cccnc3)C2)c(C)o1 (centres undefined) | > 42 µM (inactive) |
| COc1ccc(-n2c(SCC(=O)NCC3CCCO3)nc3c(c2=O)SCC3)cc1OC (centres undefined) | > 42 µM (inactive) |
| Cc1c(NP(=O)(c2ccc(Br)cc2)c2ccc(Br)cc2)c(=O)n(-c2ccccc2)n1C | > 42 µM (inactive) |
| COc1ccc(C(=O)CSc2nnc(CNC(=O)c3ccccc3)n2C)cc1 | > 42 µM (inactive) |
| CCOC(=O)C1=C(C)NC(=O)CC1c1cc2c(cc1[N+](=O)[O-])OCO2 (centres undefined) | > 42 µM (inactive) |
| CSc1cccc(NC(=S)N2CCCN(Cc3ccccc3F)C2)c1 | > 42 µM (inactive) |
| COc1ccc(C(=O)OCC(=O)c2ccccc2)cc1S(=O)(=O)N1CCOCC1 | > 42 µM (inactive) |
